{
  "source": "patent US20210315194A1",
  "about": "“MOSQUITO ATTRACTANT FORMULATIONS AND USES THEREOF” (ACTIVE SCENT AB, priority 2018, published 2021)",
  "origin": "cited, not measured here",
  "test_system": "wild egg-laying Culex mosquitoes",
  "details": "traps baited with 1 mg of the compound",
  "data": [
    {"smiles": "CCCCCCCCC=O", "note": "[nonanal]", "values": [
      {"measurement": "attraction to baited traps", "value": "attract"}
    ]}
  ]
}
